Earlier results on two compounds are cited in paper PMC11070244 (Current Research in Structural Biology, 2024).

Series [1] deals with T1, BChE (Homo sapiens, UniProt P06276). To be noted: in vitro experiments; ref Durmaz et al. (2023).
In another series the target is AChE (Homo sapiens, UniProt P22303). The note with it: in vitro experiments; ref Durmaz et al. (2023).
Series [2] addresses T1, BChE. To be noted: ref Khan et al., 2009.

T1 sequence (P06276 29-602, species assumed): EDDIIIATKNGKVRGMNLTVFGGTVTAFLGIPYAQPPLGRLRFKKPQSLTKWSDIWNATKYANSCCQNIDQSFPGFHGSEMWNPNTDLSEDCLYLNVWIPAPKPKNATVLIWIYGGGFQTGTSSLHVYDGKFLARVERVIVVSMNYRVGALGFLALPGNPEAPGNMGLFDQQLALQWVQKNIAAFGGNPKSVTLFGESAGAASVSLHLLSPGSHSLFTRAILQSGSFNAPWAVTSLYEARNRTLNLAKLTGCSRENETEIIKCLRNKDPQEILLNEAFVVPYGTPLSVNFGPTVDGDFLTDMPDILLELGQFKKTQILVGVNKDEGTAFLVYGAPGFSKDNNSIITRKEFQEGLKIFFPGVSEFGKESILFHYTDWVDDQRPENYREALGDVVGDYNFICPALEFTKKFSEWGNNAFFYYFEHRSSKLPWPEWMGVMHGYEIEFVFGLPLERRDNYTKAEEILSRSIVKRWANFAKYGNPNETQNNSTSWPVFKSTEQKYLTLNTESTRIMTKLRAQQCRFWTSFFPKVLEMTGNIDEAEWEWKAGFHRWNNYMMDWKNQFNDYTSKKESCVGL
Chain of AChE (P22303 32-614): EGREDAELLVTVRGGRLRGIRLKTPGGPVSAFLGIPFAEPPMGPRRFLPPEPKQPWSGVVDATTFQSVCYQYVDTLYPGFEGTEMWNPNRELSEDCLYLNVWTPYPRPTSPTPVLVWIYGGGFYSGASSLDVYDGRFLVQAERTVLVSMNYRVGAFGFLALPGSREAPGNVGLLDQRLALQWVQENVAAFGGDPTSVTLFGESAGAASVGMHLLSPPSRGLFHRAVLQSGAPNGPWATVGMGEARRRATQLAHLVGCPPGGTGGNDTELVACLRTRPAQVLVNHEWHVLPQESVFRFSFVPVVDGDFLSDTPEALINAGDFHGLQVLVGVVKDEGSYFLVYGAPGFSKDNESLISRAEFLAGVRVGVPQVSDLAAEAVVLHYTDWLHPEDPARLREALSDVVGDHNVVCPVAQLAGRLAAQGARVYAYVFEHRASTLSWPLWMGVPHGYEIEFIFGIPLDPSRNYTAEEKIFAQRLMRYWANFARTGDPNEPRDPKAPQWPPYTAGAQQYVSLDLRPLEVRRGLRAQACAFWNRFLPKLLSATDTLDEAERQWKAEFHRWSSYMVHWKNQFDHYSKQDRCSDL

Regarding `O=C(O)[C@H]1O[C@@H](Oc2cc3oc(-c4ccccc4)cc(=O)c3c(O)c2O)[C@H](O)[C@@H](O)[C@@H]1O` [baicalin], on BChE [1], the “Inhibition of BChE activity” value is “significantly inhibited”. In addition, on AChE, the “Inhibition of AChE activity” value is given as “significantly inhibited”.
With `O=c1c(O)c(-c2ccc(O)c(O)c2)oc2cc(O)cc(O)c12` [quercetin], the “Docking score with BChE compared to donepezil” value on BChE [2] is on record as “stronger docking score”.
